Data reported in patent US6664398B2, “Derivatives of erythromycin, their preparation process and their use as medicaments” (Aventis Pharma S.A., priority 1999, dated 2003).

Experiments:
Assay type in all cases: cell-based
S. pneumoniae 030SJ5i = test: Method of dilutions in liquid medium (M.I.C.); settings: reading after 24 hours, 37° C.
Experimental: (§1) Method of dilutions in liquid medium A series of tubes is prepared in which the same quantity of nutritive sterile medium is distributed. Increasing quantities of the product to be studied are distributed into each tube, then each tube is sown with a bacterial strain. After incubation for twenty-four hours in a heating chamber at 37° C., the growth inhibition is evaluated by transillumination, which allows the minimal inhibitory concentrations (M.I.C.) to be determined, expressed in micrograms/cm^3. The following results were obtained with the product of Example 1: (reading after 24 hours)

S. epidermidis 012GO11i = test: Method of dilutions in liquid medium (M.I.C.); settings: reading after 24 hours, 37° C.
Experimental: as §1

S. agalactiae 02B1SJ1c = test: Method of dilutions in liquid medium (M.I.C.); settings: reading after 24 hours, 37° C.
Experimental: as §1

S. faecalis 02D2UC1 = test: Method of dilutions in liquid medium (M.I.C.); settings: reading after 24 hours, 37° C.
Experimental: as §1

S. pneumoniae 032UC1 = test: Method of dilutions in liquid medium (M.I.C.); settings: reading after 24 hours, 37° C.
Experimental: as §1

S. sanguis 02SGr10i = test: Method of dilutions in liquid medium (M.I.C.); settings: reading after 24 hours, 37° C.
Experimental: as §1

S. faecalis 02D2DU15c = test: Method of dilutions in liquid medium (M.I.C.); settings: reading after 24 hours, 37° C.
Experimental: as §1

S. pneumoniae 030CR18c = test: Method of dilutions in liquid medium (M.I.C.); settings: reading after 24 hours, 37° C.
Experimental: as §1

S. mitis 02MitGR16i = test: Method of dilutions in liquid medium (M.I.C.); settings: reading after 24 hours, 37° C.
Experimental: as §1

S. agalactiae 02B1HT1 = test: Method of dilutions in liquid medium (M.I.C.); settings: reading after 24 hours, 37° C.
Experimental: as §1

S. mitis 02MitCB1 = test: Method of dilutions in liquid medium (M.I.C.); settings: reading after 24 hours, 37° C.
Experimental: as §1

S. faecium 02D3HT1 = test: Method of dilutions in liquid medium (M.I.C.); settings: reading after 24 hours, 37° C.
Experimental: as §1

S. aureus 011UC4 = test: Method of dilutions in liquid medium (M.I.C.); settings: reading after 24 hours, 37° C.
Experimental: as §1

S. pyogenes 02A1UC1 = test: Method of dilutions in liquid medium (M.I.C.); settings: reading after 24 hours, 37° C.
Experimental: as §1

S. aureus 011GO25i = test: Method of dilutions in liquid medium (M.I.C.); settings: reading after 24 hours, 37° C.
Experimental: as §1

S. pneumoniae 030GR20 = test: Method of dilutions in liquid medium (M.I.C.); settings: reading after 24 hours, 37° C.
Experimental: as §1

S. pneumoniae 030RO1i = test: Method of dilutions in liquid medium (M.I.C.); settings: reading after 24 hours, 37° C.
Experimental: as §1

S. pneumoniae 030SJ1c = test: Method of dilutions in liquid medium (M.I.C.); settings: reading after 24 hours, 37° C.
Experimental: as §1

S. pneumoniae 030PW23c = test: Method of dilutions in liquid medium (M.I.C.); settings: reading after 24 hours, 37° C.
Experimental: as §1

[1] = system: Streptococcus gr.G 02GOGR5; test: Method of dilutions in liquid medium (M.I.C.); settings: reading after 24 hours, 37° C.
Experimental: as §1

[2] = system: Haemophilus Influenzae 351HT3, 351CB12, 351CA1 and 351GR6; test: Activity on gram-negative bacterial strains
Experimental: as §1

**Q.** Which results are given for `CC[C@H]1OC(=O)[C@H](C)C(=O)[C@H](C)[C@@H](O[C@@H]2O[C@H](C)C[C@H](N(C)C)[C@H]2O)[C@](C)(OC)C[C@@H](C)C(=O)[C@H](C)[C@H]2N(CCCCn3ccc(-c4cccnc4)n3)C(=O)O[C@]12C` [Example 1, 11,12-dideoxy-3-de[(2,6-dideoxy-3-C-methyl-3-O-methyl-α-L-ribohexopyranosyl)oxy]-6-O-methyl-3-oxo-12,11-[oxycarbonyl[[4-[3-(3-pyridinyl)-1H-pyrazol-1-yl]butyl]imino]]-erythromycin]?
**A.** minimal inhibitory concentrations (M.I.C.) (S. pneumoniae 030SJ5i): 0.040 micrograms/cm^3; minimal inhibitory concentrations (M.I.C.) (S. epidermidis 012GO11i): 0.040 micrograms/cm^3; minimal inhibitory concentrations (M.I.C.) (S. agalactiae 02B1SJ1c): 0.050 micrograms/cm^3; minimal inhibitory concentrations (M.I.C.) (S. faecalis 02D2UC1): 0.02 micrograms/cm^3; minimal inhibitory concentrations (M.I.C.) (S. pneumoniae 032UC1): 0.02 micrograms/cm^3; minimal inhibitory concentrations (M.I.C.) (S. sanguis 02SGr10i): 0.02 micrograms/cm^3; minimal inhibitory concentrations (M.I.C.) (S. faecalis 02D2DU15c): 5.000 micrograms/cm^3; minimal inhibitory concentrations (M.I.C.) (S. pneumoniae 030CR18c): 0.300 micrograms/cm^3; minimal inhibitory concentrations (M.I.C.) (S. mitis 02MitGR16i): 0.02 micrograms/cm^3; minimal inhibitory concentrations (M.I.C.) (S. agalactiae 02B1HT1): 0.02 micrograms/cm^3; minimal inhibitory concentrations (M.I.C.) (S. mitis 02MitCB1): 0.02 micrograms/cm^3; minimal inhibitory concentrations (M.I.C.) (S. faecium 02D3HT1): 0.02 micrograms/cm^3; minimal inhibitory concentrations (M.I.C.) (S. aureus 011UC4; S. aureus 011UC4+ 50% serum): 0.600 micrograms/cm^3; minimal inhibitory concentrations (M.I.C.) (S. aureus 011UC4; S. aureus 011UC4): 0.040 micrograms/cm^3; minimal inhibitory concentrations (M.I.C.) (S. pyogenes 02A1UC1): 0.02 micrograms/cm^3; minimal inhibitory concentrations (M.I.C.) (S. aureus 011GO25i): 0.600 micrograms/cm^3; minimal inhibitory concentrations (M.I.C.) (S. pneumoniae 030GR20): 0.02 micrograms/cm^3; minimal inhibitory concentrations (M.I.C.) (S. pneumoniae 030RO1i): 0.150 micrograms/cm^3; minimal inhibitory concentrations (M.I.C.) (S. pneumoniae 030SJ1c): 0.150 micrograms/cm^3; minimal inhibitory concentrations (M.I.C.) (S. pneumoniae 030PW23c): 0.02 micrograms/cm^3; minimal inhibitory concentrations (M.I.C.) [1]: 0.02 micrograms/cm^3; activity on gram-negative bacterial strains [2]: useful activity
